According to PubChem BioAssay (NCI):
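Briefly, cells in 96-well plates were exposed to five compound concentrations for 48 h, and endpoints were estimated by linear interpolation. At the GI50, growth is halved. Definition used: TGI = concentration required for complete inhibition of growth.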

test system: CAKI-1 renal; assay: DTP human tumour cell line panel, 48 h

Row | Structure (SMILES) | GI50 | TGI
1 | Cc1ccc(C(=O)CN(/C=C/C(=O)C(F)(F)F)c2ccc(S(N)(=O)=O)cc2)cc1 | 93 µM | > 100 µM
2 | COC(C(O)CO)C(O)C(O)C(=O)NNc1ccccc1 (configuration not stated) | – | > 100 µM
3 | NS(=O)(=O)c1ccc(NC2(C(=O)O)CCCC2)cc1 | – | > 100 µM
4 | O=C(O)C1OC(n2cc(F)c(=O)[nH]c2=O)CC1O (configuration not stated) | – | > 100 µM
5 | CC(C)C(Nc1c2ccccc2nc2ccccc12)C(=O)O (configuration not stated) | – | > 100 µM
6 | N=C1C(c2nc3ccccc3s2)=C(O)CN1c1cc(C(F)(F)F)ccc1Cl | 4.7 µM | 40.4 µM
7 | COc1ccccc1CCc1cc(OC)c(OC)c(OC)c1 | – | > 100 µM
8 | COc1cc2c(cc1OC)C(CC(=O)NN=C(C)C)NCC2 (configuration not stated) | – | > 100 µM
9 | COC(=O)/C(=N\Nc1nnc(C)n1N)C(C#N)c1ccc(Cl)cc1 (configuration not stated) | – | > 100 µM
10 | Cc1cccc(NC(=O)C(=O)C(C(=O)c2ccc3ccccc3c2)C2OC(=O)c3ccccc32)c1C (configuration not stated) | – | 39.3 µM
11 | CCOC(=O)[C@@H](N)CCC(=O)N[C@@H](CSCc1ccccc1)C(=O)N[C@@H](C(=O)OCC)c1ccccc1 | 22.2 µM | > 53 µM
12 | COc1ccc(Nc2c3ccccc3nc3occc23)cc1 | 2.93 µM | > 42 µM
13 | CS/C(N)=N\NC(=O)CCC(=O)Nc1ccccc1C(F)(F)F | – | > 100 µM
14 | CC(=O)/C(C)=N/NC(=O)c1ccccc1O | > 100 µM | > 100 µM
15 | CCCCCCCC/C=C/CCCCCCCC(=O)OC[C@H]1O[C@@H](n2ccc(N)nc2=O)C(F)(F)[C@@H]1O | < 0.0135 µM | 3.59 µM
16 | NS(=O)(=O)c1ccc(N=Nc2c(O)[nH]c3ccc(-c4cnco4)cc23)cc1 | > 25 µM | > 25 µM
17 | CCC[CH2][Sn]1([CH2]CCC)[O]CC(CN2CCCC2)[O]1 (configuration not stated) | 5.6 µM | 24.5 µM

test system: KM12 colon; assay: DTP human tumour cell line panel, 48 h

Row | Structure (SMILES) | TGI | GI50
18 | Cc1nc(N)sc1C(=O)/C=C\c1ccc2c(c1)OCO2 | > 100 µM | –
19 | CN1CCN(CCCOc2ccc3nc(Nc4ccc(Cl)c(C(F)(F)F)c4)ccc3c2)CC1 | 23.4 µM | 9.51 µM
20 | Cn1c(=O)c(C(c2ccc([N+](=O)[O-])cc2)c2c(O)c3ccccc3n(C)c2=O)cc2ccccc21 (configuration not stated) | > 100 µM | –
21 | CC(C)n1nc(-c2cc3cc(O)ccc3[nH]2)c2c(N)ncnc21 | 10.8 µM | 0.307 µM
22 | CCCCC(O)(c1ccc(Cl)cc1)C(CN1CCOCC1)c1ccc(Cl)cc1 (configuration not stated) | 29.1 µM | 12.2 µM
23 | COc1cc(C=C2C(=O)NC(=O)NC2=O)cc(OC)c1OC | > 100 µM | –
24 | Nn1c(=O)n(Cc2ccccc2)n(-c2ccccc2)c1=O | > 100 µM | –
25 | NCC1Nc2ccccc2[C@@H](O)C1O (some centres not stated) | > 100 µM | –
26 | OC[C@H]1CCCC1O (some centres not stated) | > 100 µM | –
27 | Cc1cccc(N2CCN(C(=S)c3ccc4c(c3)OCO4)CC2)c1 | > 100 µM | 0.514 µM
28 | O=C1OC(C(O)CO)C(=O)C1=O (configuration not stated) | > 10000 µM | 3500 µM
29 | COC(=O)C1=CNC=C(C(=O)OC)C1C1=CC(=O)C(C)=CC1=O | 31.8 µM | 17.1 µM
30 | C=C1C(=O)O[C@H]2[C@H]1CC/C(COC(=O)C(=O)c1cn(Cc3ccccc3)c3ccccc13)=C\CC[C@@]1(C)O[C@@H]21 | 11.5 µM | 3.06 µM
31 | Cc1ccc(C(=O)CN(/C=C/C(=O)C(F)(F)F)c2ccc(S(N)(=O)=O)cc2)cc1 | > 100 µM | 31.4 µM
32 | COC(C(O)CO)C(O)C(O)C(=O)NNc1ccccc1 (configuration not stated) | > 100 µM | –
33 | NS(=O)(=O)c1ccc(NC2(C(=O)O)CCCC2)cc1 | > 100 µM | –
34 | O=C(O)C1OC(n2cc(F)c(=O)[nH]c2=O)CC1O (configuration not stated) | > 100 µM | –
35 | CC(C)C(Nc1c2ccccc2nc2ccccc12)C(=O)O (configuration not stated) | > 100 µM | –
36 | N=C1C(c2nc3ccccc3s2)=C(O)CN1c1cc(C(F)(F)F)ccc1Cl | > 100 µM | 20.5 µM
37 | COc1ccccc1CCc1cc(OC)c(OC)c(OC)c1 | > 100 µM | –
38 | COc1cc2c(cc1OC)C(CC(=O)NN=C(C)C)NCC2 (configuration not stated) | > 100 µM | –
39 | COC(=O)/C(=N\Nc1nnc(C)n1N)C(C#N)c1ccc(Cl)cc1 (configuration not stated) | > 100 µM | –
40 | Cc1cccc(NC(=O)C(=O)C(C(=O)c2ccc3ccccc3c2)C2OC(=O)c3ccccc32)c1C (configuration not stated) | 51.7 µM | –
